According to patent US11123398B2, “Chemotherapeutic combinations of cationic antimicrobial peptides and chemotherapeutics” (LYTIX BIOPHARMA AS, priority 2014, dated 2021):
Non-standard residues stand in square brackets, D forms with d. Residues, ends and D or L forms follow the SMILES beside them. Dip = N[C@H](C(=O)O)C(c1ccccc1)c1ccccc1

Experiments:
SK-OV-3 cell line = assay type: cell-based, human; conditions: 4 h
Procedure: (§1) Tumor cells were plated in 96-well flat-bottom microtitration plates (Nunc, Dutscher, Brumath, France) and incubated at 37° C. for 24 hours before treatment in 190 μl of drug-free culture medium supplemented or not with 10% FBS for adherent or suspension growing cell lines, respectively.
(§2) The adherent cell lines were washed once with 200 μl FBS-free culture medium before treatment. Tumor cells were incubated for 4 hours with 10 concentrations of compounds in ¼ dilution step with a top dose of 400 μM (range 4×10^−4 to 4×10^−10 M), with 1% (final concentration) Triton X-100 as positive control and FBS-free culture medium as negative control. The cells (190 μl) were incubated in a 200 μl final volume of FBS-free culture medium containing test substances at 37° C. under 5% CO2.
(§3) Three independent experiments were performed, each concentration being tested in quadruplicate. Control cells were treated with vehicle alone. At the end of treatments, the cytotoxic activity was evaluated by a MTS assay (see § 3.3.).
(§4) Like MTT, MTS is bioreduced by cells into a formazan product that is directly soluble in culture medium without processing, unlike MTT.
(§5) At the end of the cells treatment, 40 μl of a 0.22 μm filtered freshly combined solution of MTS (20 ml at 2 mg/ml, Ref G1111, Batch 235897, Exp March 2009, Promega, Charbonnières, France) and PMS (1 ml at 0.92 mg/ml, Ref P9625, Batch 065K0961, Sigma) in Dulbecco's Phosphate Buffered Saline (DPBS, Ref 17-513Q, Batch 6MB0152, Cambrex), were added in each well. Culture plates were incubated for 2 h at 37° C. Absorbency (OD) were measured at 490 nm in each well using VICTOR^3™ 1420 multilabeled counter (Wallac, PerkinElmer, Courtaboeuf, France).
(§6) IC50: drug concentration to obtain a 50% inhibition of cell proliferation.
(§7) The dose-response curves were plotted using XLFit 3 (IDBS, United Kingdom). The IC50 determination values were calculated using the XLFit 3 software from semi-log curves. Individual IC50 determination values as well as mean and SD values were generated.

T-47D cell line = assay type: cell-based, human; conditions: 4 h
Procedure: as §1, §2, §3, §4, §5, §6, §7

[1] = tested on: panel of 10 lymphoma cell lines; assay type: cell-based, human
Procedure: Tumor cells were plated in 96-well flat-bottom microtitration plates (Nunc, Dutscher, Brumath, France) and incubated at 37° C. for 24 hours before treatment in 190 μl of drug-free and FBS-free culture medium.
[…] compounds in ¼ dilution step with a top dose of 400 μM (range 4×10^−4 to […]), with 1% (final concentration) Triton X-100 as positive control and FBS-free culture medium as negative control. The cells (190 μl) were incubated in a 200 μl final volume of FBS-free culture medium containing test substances at 37° C. under 5% CO2.
Three independent experiments were performed, each concentration being issued from quadruplicate. Control cells were treated with vehicle alone. At the end of treatments, the cytotoxic activity was evaluated by a MTS assay (see § 3.3 below).
as §4, §5
4.1. IC50 Data was Determined as in Example 1

[2] = tested on: murine A20 B-cell lymphoma; test: Murine A20 B-cell lymphoma tumours in mice, dose levels; assay type: in vivo; conditions: for Mean tumour size at day 1: prior to start of treatment
Procedure: The administration took place by intratumoural injection of LTX-315 dissolved in sterile saline.
The mice were divided into four groups (see Table 8 below for details). The intratumoural treatment was initiated when the tumours had reached the desired size of approximately 5 mm in diameter (minimum of 20 mm^2).
Three dose levels of LTX-315, 1 mg (Group 1), 0.5 mg (Group 2) and 0.25 mg (Group 3) per injection, were investigated. The volume was 50 μl for all injections. LTX-315 was dissolved in sterile 0.9% NaCl water solution. This vehicle was used as control (Group 4). All four groups received three injections.
A caliper was used for tumour size measurements and weighing and physical examination were used as health control.

A375 cells [3] = test: TEM electron microscopy, A375; assay type: cell-based, human
Procedure: A375 cells were seeded at 1×10^5 cells per well in 6-well plates and allowed to grow for three days to optimize membrane structures in the culture, and the media was changed on the second day. Cells were washed twice in serum-free RPMI before being treated with LTX-315 dissolved in serum-free RPMI at 5, 10 and 25 μg/ml, with serum-free RPMI as a negative control. Cells were then washed with PBS twice before fixation for 24 hours in 4° C. with 4% formaldehyde and 1% gluteralaldehyde in a Hepes buffer at pH 7.8. Dehydration and post-fixation protocols included incubation in a 5% buffered tannic acid and incubation in a 1% osmium-reduced ferrocyanide. Ultrathin sections were prepared, and uranyl acetate (5%) and Reynolds's lead citrate were used for staining and contrasting. Samples were examined on a JEOL JEM-1010 transmission electron microscope, and images were taken with an Olympus Morada side-mounted TEM CCD camera (Olympus soft imaging solutions, GmbH, Germany).

A375 cells [4] = test: Mitotracker confocal imaging (mitochondrial membrane potential); assay type: cell-based, human; conditions: short time after peptide treatment; data not shown
Procedure: Cells were seeded as for live cell imaging, and treated with Mitotracker CMH2XROS (Invitrogen) at […] for 15 minutes prior to peptide treatment. Cells were treated with 17 μM LTX-315, with negative control serum-free RPMI only. After 60 min of incubation, cells were analyzed using a Zeiss microscope. All confocal imaging experiments were subsequently conducted at least twice with similar results.

[5] = Group 1: 1 mg intratumoural once daily days 1,2,3
[6] = Group 2: 0.5 mg intratumoural once daily days 1,2,3
[7] = Group 3: 0.25 mg intratumoural once daily days 1,2,3

With NCCCC[C@H](NC(=O)[C@@H](NC(=O)[C@H](Cc1c[nH]c2ccccc12)NC(=O)[C@H](CCCCN)NC(=O)[C@H](CCCCN)NC(=O)[C@H](Cc1c[nH]c2ccccc12)NC(=O)[C@H](Cc1c[nH]c2ccccc12)NC(=O)[C@H](CCCCN)NC(=O)[C@@H](N)CCCCN)C(c1ccccc1)c1ccccc1)C(N)=O [LTX-315, K-K-W-W-K-K-W-Dip-K-NH2] (H-KKWWKKW[Dip]K-NH2) the IC50 (SK-OV-3 cell line) was 7.16 ± 0.99 µM, the IC50 (T-47D cell line) was 1.18 ± 0.25 µM and the “Potency rank among the five compounds tested, lymphoma panel” value [1] was “most potent compound from the five compounds tested”. For the same compound, the “IC50 range against 10 human lymphoma cell lines” value ([1]; conclusion) was “micromolar range”, the “Anti-tumour effect” value ([2]; 1 mg and 0.5 mg, first period of the study) was “strong and rapid anti tumour effect” and the “Mean tumour size on day 4” value [2, 5] was 0 mm^2. The “Mean tumour size on day 9” value [2, 5] was 3.70 ± 2.40 mm^2, the “Mean tumour size on day 14” value [2, 5] was 12.43 ± 7.87 mm^2 and the “Mean tumour size at day 1” value [2, 5] was 25.82 ± 0.80 mm^2. The “Free of Tumour at end of Follow-Up” value ([2]; Group 1: 1 mg x3, n=7) was 42.8% (3/7), the “Relapse of Tumour” value ([2]; Group 1: 1 mg x3, n=7) was 25% and the “Tumour Response: complete response” value ([2]; Group 1: 1 mg x3, n=7) was 57.2% (4/7). The “Tumour Response: no response” value ([2]; Group 1: 1 mg x3, n=7) was 0%, the “Tumour Response: partial response” value ([2]; Group 1: 1 mg x3, n=7) was 42.8% (3/7) and the “Mean tumour size on day 4” value [2, 6] was 0 mm^2. The “Mean tumour size on day 9” value [2, 6] was 11.41 ± 4.69 mm^2, the “Mean tumour size on day 14” value [2, 6] was 61.08 ± 23.84 mm^2 and the “Mean tumour size at day 1” value [2, 6] was 22.03 ± 0.63 mm^2. The “Free of Tumour at end of Follow-Up” value ([2]; Group 2: 0.5 mg x3, n=7) was 28.57% (2/7), the “Relapse of Tumour” value ([2]; Group 2: 0.5 mg x3, n=7) was 0% (0/2) and the “Tumour Response: complete response” value ([2]; Group 2: 0.5 mg x3, n=7) was 28.57% (2/7). The “Tumour Response: no response” value ([2]; Group 2: 0.5 mg x3, n=7) was 0%, the “Tumour Response: partial response” value ([2]; Group 2: 0.5 mg x3, n=7) was 71.42% and the “Anti-tumour effect” value ([2]; Group 3, 0.25 mg/dose, first days) was “a small inhibitory effect is observed during the first days”. For the same compound, the “Mean tumour size on day 4” value [2, 7] was 20.60 ± 5.71 mm^2, the “Mean tumour size on day 9” value [2, 7] was 68.49 ± 12.74 mm^2 and the “Mean tumour size on day 14” value [2, 7] was 69.42 ± 17.70 mm^2. The “Mean tumour size at day 1” value [2, 7] was 21.25 ± 0.64 mm^2, the “Free of Tumour at end of Follow-Up” value ([2]; Group 3: 0.25 mg x3, n=9) was 0% and the “Tumour Response: complete response” value ([2]; Group 3: 0.25 mg x3, n=9) was 0% (0/9). The “Tumour Response: no response” value ([2]; Group 3: 0.25 mg x3, n=9) was 77.77%, the “Tumour Response: partial response” value ([2]; Group 3: 0.25 mg x3, n=9) was 22.22% and the “Adverse events or toxic effects” value ([2]; all LTX-315 groups, intratumoural) was “Except from the wound formation no other adverse events or toxic effects were observed”. For the same compound, the “Treated mice with complete tumour response” value ([2]; optimal dose, Group 1 (1 mg x3)) was 3 of 7, the “Cells displaying vacuolization (TEM)” value (A375 cells [3]; 3.5 μM, 60 minutes) was “approximately 20%” and the “Number of necrotic cells (TEM)” value (A375 cells [3]; 3.5 μM, 60 minutes) was “less than 5%”. For the same compound, the “Cells displaying vacuolization (TEM)” value (A375 cells [3]; 17 μM, 60 min) was 4%, the “Cells with necrotic morphology, loss of plasma membrane integrity (TEM)” value (A375 cells [3]; 17 μM, 60 min) was “approximately 40%” and the “Mitochondrial membrane potential (Mitotracker signal)” value (A375 cells [4]) was “loss of mitochondrial signal”.
